From PMC5564600 (Oncotarget, 2017) come the findings set out here.

Common to all, as to assay type: binding
The target in one assay is T1, FLT3 (D835Y mutant) (Homo sapiens, UniProt P36888, D835Y).
T1 construct: purchased Ambit Biosciences (scanMAXX KINOMEscan)
T1 sequence (P36888 27-993 D835Y): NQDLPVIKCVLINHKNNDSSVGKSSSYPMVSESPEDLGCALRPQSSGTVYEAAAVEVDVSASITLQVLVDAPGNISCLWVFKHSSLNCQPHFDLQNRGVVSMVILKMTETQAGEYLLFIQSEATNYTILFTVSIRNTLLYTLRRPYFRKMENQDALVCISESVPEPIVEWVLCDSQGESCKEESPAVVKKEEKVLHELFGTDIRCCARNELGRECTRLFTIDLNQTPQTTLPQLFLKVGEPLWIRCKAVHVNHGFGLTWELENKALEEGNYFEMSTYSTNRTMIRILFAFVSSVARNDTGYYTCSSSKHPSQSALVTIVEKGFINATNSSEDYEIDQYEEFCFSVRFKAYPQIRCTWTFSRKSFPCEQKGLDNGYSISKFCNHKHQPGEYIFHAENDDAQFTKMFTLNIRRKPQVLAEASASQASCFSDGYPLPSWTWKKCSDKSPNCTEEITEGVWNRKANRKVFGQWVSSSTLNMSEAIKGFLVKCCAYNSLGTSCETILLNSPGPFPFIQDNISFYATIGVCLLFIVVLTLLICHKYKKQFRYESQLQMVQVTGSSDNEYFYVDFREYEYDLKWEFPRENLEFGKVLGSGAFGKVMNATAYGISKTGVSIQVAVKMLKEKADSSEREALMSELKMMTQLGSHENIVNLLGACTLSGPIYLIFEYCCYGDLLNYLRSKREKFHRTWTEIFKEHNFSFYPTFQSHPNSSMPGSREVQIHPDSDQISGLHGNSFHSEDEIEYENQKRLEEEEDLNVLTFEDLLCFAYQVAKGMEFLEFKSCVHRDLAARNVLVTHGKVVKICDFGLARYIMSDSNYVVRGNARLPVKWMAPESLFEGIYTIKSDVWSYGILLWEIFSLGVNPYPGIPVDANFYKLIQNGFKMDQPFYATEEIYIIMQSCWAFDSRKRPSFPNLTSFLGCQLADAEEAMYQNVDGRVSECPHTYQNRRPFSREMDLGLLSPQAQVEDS
In words: KINOMEscan, FLT3 D835Y. The conditions noted are these: for remaining binding at 1 µM / remaining binding at 10 µM: FLT3(D835Y); for remaining binding at 1 µM: read-out: % of control at 1 µM; for remaining binding at 10 µM: read-out: % of control at 10 µM.

The target of a further assay is T2, CLK4 (Homo sapiens, UniProt Q9HAZ1).
T2 construct: purchased Ambit Biosciences (scanMAXX KINOMEscan)
In words: KINOMEscan, CLK4. The conditions noted are these: for remaining binding at 1 µM: read-out: % of control at 1 µM.

A further assay deals with T3, PIK3C2G (Homo sapiens, UniProt O75747).
T3 construct: purchased Ambit Biosciences (scanMAXX KINOMEscan)
T3 sequence (O75747 1-1486): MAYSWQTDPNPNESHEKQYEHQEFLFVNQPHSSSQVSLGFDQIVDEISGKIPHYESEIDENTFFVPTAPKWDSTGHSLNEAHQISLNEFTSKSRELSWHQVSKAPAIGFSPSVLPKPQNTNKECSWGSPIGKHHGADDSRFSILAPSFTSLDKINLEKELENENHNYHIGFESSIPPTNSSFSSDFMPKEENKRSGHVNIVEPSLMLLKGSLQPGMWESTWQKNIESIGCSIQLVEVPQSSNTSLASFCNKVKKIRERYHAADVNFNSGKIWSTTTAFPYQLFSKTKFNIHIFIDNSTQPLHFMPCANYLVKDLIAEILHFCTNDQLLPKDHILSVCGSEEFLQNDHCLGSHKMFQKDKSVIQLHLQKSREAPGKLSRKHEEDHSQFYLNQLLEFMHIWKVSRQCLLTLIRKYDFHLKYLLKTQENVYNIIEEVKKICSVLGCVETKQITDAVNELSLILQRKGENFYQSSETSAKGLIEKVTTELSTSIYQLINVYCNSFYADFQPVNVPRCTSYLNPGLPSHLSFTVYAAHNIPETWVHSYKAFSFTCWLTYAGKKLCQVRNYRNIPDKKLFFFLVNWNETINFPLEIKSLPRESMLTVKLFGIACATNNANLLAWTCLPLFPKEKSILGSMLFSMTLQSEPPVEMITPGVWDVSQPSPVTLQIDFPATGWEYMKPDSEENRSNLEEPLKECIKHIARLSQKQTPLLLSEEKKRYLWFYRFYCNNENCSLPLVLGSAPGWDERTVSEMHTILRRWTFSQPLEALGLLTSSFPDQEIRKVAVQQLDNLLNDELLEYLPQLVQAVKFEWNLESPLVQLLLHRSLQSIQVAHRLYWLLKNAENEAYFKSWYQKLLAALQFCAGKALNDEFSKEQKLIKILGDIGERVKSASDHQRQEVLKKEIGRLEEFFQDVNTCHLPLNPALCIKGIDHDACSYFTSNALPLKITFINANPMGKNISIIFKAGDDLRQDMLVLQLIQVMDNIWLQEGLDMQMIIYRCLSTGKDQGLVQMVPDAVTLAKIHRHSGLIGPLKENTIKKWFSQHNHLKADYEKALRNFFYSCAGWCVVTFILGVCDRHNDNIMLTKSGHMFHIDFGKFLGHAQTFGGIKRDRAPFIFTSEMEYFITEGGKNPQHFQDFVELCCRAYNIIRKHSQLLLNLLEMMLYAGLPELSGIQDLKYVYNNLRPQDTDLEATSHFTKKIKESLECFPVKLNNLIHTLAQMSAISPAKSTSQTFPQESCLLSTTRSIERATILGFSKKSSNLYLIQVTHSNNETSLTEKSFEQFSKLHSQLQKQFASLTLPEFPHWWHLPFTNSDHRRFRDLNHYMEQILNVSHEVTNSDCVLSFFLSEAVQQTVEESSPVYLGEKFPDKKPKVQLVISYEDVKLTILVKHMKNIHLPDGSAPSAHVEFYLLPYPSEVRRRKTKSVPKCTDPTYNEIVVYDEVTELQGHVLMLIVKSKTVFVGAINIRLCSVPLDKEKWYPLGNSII
In words: KINOMEscan, PIK3C2G. The conditions noted are these: for remaining binding at 1 µM / remaining binding at 10 µM: kinase PIK3C2G; for remaining binding at 1 µM: read-out: % of control at 1 µM; for remaining binding at 10 µM: read-out: % of control at 10 µM.

Assay [1] has as its target T4, catalytic JH1 domain of JAK2 (Homo sapiens, UniProt O60674).
T4 construct: the catalytic JH1 domains of JAK1 and JAK2; purchased Ambit Biosciences (scanMAXX KINOMEscan)
In words: KINOMEscan, JAK2 JH1 domain. The note with it: for remaining binding at 1 µM / remaining binding at 10 µM: kinase JAK2(JH1domain-catalytic); for remaining binding at 1 µM: read-out: % of control at 1 µM; for remaining binding at 10 µM: read-out: % of control at 10 µM.

For a further assay, the target named is T5, CLK2 (Homo sapiens, UniProt P49760).
T5 construct: purchased Ambit Biosciences (scanMAXX KINOMEscan)
In words: KINOMEscan, CLK2. The note with it: for remaining binding at 1 µM: read-out: % of control at 1 µM.

Another assay has as its target T6, G2019S mutant of LRRK2 (Homo sapiens, UniProt Q5S007, G2019S).
T6 construct: purchased Ambit Biosciences (scanMAXX KINOMEscan)
In words: KINOMEscan, LRRK2 G2019S. The conditions noted are these: for remaining binding at 1 µM / remaining binding at 10 µM: kinase LRRK2(G2019S); for remaining binding at 1 µM: read-out: % of control at 1 µM; for remaining binding at 10 µM: read-out: % of control at 10 µM.

The next assay deals with T7, CLK1 (Homo sapiens, UniProt P49759).
T7 construct: purchased Ambit Biosciences (scanMAXX KINOMEscan)
In words: KINOMEscan, CLK1. The conditions noted are these: for remaining binding at 1 µM: read-out: % of control at 1 µM.

As usually defined, the inhibition is the percentage by which the read-out fell short of the control. Higher therefore signals strong suppression.

T2 sequence (Q9HAZ1 whole entry): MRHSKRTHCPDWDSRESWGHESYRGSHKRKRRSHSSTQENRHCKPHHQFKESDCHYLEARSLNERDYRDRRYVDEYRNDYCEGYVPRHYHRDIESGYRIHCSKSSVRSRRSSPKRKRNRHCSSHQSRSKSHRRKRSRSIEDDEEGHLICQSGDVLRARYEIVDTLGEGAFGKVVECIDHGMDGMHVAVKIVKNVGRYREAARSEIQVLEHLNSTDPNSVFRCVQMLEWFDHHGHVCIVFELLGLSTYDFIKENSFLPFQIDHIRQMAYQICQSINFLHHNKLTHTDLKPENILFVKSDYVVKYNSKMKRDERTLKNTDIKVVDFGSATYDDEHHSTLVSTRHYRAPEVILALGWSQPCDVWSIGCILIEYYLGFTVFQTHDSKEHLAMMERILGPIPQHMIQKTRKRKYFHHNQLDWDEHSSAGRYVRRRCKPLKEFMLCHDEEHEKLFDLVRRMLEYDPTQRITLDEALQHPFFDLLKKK
T5 sequence (P49760 whole entry): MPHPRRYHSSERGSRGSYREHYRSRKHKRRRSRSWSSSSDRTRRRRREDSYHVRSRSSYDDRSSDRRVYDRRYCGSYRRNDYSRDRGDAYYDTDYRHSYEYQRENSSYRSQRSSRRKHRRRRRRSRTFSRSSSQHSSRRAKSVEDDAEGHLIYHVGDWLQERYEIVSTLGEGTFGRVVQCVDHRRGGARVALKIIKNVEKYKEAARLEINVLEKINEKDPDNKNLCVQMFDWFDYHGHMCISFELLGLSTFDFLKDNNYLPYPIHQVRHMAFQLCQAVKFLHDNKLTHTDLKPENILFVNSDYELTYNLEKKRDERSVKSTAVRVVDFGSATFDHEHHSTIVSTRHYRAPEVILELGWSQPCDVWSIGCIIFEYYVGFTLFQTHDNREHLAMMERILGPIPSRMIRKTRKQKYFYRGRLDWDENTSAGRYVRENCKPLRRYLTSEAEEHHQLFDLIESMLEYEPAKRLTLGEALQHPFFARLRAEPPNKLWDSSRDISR
T7 sequence (P49759 whole entry): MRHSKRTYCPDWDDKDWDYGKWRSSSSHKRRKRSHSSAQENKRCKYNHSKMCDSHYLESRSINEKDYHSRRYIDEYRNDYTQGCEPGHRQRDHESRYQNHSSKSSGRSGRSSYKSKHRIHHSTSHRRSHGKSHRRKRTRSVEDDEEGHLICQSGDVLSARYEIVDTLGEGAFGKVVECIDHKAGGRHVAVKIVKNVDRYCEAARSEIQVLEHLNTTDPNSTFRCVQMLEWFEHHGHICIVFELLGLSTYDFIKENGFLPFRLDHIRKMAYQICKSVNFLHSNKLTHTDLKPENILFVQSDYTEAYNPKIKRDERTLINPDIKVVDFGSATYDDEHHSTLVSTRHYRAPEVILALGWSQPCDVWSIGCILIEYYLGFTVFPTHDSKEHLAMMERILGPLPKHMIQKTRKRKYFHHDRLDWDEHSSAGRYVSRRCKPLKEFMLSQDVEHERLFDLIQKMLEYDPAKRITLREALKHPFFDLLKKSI
T4 sequence (O60674 849-1124 limits assumed): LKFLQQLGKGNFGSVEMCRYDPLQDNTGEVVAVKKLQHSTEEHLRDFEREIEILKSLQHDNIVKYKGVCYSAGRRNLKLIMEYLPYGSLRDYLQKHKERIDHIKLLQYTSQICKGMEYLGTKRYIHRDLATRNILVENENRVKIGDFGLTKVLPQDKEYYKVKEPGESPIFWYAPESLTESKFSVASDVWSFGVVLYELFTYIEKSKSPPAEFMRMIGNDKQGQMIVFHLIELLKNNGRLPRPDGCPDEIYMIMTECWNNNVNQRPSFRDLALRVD
T6 sequence (Q5S007 whole entry G2019S): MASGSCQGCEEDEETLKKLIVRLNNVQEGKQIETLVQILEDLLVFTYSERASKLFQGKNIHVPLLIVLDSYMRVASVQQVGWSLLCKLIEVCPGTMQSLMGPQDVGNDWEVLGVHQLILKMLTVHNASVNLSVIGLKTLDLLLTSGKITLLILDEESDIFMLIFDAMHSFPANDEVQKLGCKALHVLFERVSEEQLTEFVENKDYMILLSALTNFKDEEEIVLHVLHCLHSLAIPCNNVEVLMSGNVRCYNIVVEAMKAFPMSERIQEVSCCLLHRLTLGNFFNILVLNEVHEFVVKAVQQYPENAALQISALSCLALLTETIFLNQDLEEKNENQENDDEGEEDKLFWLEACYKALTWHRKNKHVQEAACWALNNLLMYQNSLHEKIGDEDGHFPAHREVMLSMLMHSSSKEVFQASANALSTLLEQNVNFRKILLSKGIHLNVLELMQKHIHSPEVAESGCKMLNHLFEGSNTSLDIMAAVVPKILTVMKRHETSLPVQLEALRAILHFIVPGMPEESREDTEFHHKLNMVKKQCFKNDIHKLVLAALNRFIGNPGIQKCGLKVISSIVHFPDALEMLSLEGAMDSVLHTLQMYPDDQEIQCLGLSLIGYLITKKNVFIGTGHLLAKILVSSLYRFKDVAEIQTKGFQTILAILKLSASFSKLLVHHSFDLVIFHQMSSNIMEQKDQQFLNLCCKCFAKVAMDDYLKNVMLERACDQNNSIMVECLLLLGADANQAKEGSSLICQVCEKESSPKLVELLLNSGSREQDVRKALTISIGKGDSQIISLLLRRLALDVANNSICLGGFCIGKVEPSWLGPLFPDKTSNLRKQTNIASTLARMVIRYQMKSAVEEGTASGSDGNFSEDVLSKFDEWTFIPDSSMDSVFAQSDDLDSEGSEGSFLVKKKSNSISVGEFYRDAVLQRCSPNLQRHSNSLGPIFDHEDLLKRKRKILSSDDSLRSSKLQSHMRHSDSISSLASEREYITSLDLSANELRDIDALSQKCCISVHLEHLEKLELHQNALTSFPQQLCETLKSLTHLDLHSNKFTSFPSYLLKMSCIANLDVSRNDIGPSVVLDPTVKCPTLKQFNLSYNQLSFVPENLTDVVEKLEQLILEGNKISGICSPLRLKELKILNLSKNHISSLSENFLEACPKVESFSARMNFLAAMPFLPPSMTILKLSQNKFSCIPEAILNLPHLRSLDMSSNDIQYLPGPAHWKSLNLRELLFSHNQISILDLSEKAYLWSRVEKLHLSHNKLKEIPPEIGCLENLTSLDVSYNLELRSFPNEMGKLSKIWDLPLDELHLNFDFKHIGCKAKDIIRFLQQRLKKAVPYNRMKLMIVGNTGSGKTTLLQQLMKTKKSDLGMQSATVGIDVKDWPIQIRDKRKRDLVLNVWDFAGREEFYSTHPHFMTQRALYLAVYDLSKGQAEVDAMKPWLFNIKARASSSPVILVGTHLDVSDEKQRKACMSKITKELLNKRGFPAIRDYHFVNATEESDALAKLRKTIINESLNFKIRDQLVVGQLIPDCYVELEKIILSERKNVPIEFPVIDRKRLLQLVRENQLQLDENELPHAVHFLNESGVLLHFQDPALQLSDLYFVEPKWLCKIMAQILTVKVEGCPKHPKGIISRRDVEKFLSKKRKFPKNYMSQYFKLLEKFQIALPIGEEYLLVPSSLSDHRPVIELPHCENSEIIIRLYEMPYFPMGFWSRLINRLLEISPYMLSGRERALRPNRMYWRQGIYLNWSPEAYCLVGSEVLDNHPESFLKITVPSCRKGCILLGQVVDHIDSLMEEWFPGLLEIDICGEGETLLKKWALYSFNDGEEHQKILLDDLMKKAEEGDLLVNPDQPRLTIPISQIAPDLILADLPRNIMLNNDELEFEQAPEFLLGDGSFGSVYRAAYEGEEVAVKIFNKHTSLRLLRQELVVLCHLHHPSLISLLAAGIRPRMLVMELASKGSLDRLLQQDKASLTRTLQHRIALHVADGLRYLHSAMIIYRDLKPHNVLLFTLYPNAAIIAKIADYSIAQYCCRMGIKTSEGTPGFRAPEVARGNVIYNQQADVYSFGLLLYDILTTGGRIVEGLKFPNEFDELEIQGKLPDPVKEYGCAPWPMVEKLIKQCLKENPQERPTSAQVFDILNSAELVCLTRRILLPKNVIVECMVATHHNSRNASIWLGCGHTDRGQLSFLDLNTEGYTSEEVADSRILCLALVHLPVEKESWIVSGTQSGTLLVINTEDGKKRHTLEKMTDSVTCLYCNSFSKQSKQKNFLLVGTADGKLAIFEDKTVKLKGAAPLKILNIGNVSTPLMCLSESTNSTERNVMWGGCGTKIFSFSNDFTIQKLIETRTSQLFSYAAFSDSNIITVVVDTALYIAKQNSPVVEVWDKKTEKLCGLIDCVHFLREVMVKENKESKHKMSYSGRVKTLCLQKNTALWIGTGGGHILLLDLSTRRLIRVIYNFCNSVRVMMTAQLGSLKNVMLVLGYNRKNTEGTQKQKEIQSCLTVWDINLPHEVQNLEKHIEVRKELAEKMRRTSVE

Take `Nc1cc(C(F)(F)F)c(-c2cc(N3CCOCC3)nc(N3CCOCC3)n2)cn1` [Buparlisib]: the remaining binding at 1 µM turned out to be 70% on FLT3 (D835Y mutant); 38% at CLK4 (CLK4); 97% on PIK3C2G; 63% in assay [1]; 29% at CLK2 (CLK2); 88% on G2019S mutant of LRRK2. Besides, on CLK1 (CLK1), the remaining binding at 1 µM is 42%. Moreover, the remaining binding at 10 µM on FLT3 (D835Y mutant) was 42%; on CLK4 (CLK4, 10 µM, read-out: % of control at 10 µM), 13%; at PIK3C2G, 35%; in assay [1] it was 79%; at CLK2 (CLK2, 10 µM, read-out: % of control at 10 µM) it was 18%; on G2019S mutant of LRRK2, 80%. The remaining binding at 10 µM on CLK1 (CLK1, 10 µM, read-out: % of control at 10 µM) worked out at 5.3%. Besides, the “binding to CLK4” value at CLK4 (10 μM) is reported as more than 80%. For the same compound, the “binding to CLK2” value on CLK2 (10 μM) was more than 80%. For the same compound, on CLK1 (10 μM), the “binding to CLK1” value is more than 80%.

As to `Cn1c(=O)n(-c2ccc(C(C)(C)C#N)cc2)c2c3cc(-c4cnc5ccccc5c4)ccc3ncc21` [Dactolisib, 2-methyl-2-[4-(3-methyl-2-oxo-8-quinolin-3-yl-2,3-dihydroimidazo[4,5-c]quinolin-1-yl)-phenyl] propionitrile], the inhibition at 1 µM (against FLT3 (D835Y mutant) (1 μM); against CLK4 (1 μM); against PIK3C2G (1 μM); in assay [1] (1 μM); at CLK1 (1 μM)) was more than 80% in each case. Moreover, the remaining binding at 1 µM on FLT3 (D835Y mutant) was determined as 13%; on CLK4 (CLK4), 12%; at PIK3C2G it was 0%; in assay [1], 8.2%; at CLK2 (CLK2), 81%; at G2019S mutant of LRRK2, 53%. Moreover, the remaining binding at 1 µM at CLK1 (CLK1) is 13%.

As to `FC(F)c1nc2ccccc2n1-c1nc(N2CCOCC2)nc(N2CCOCC2)n1` [ZSTK474, 2-(difluoromethyl)-1-[4,6-di(4-morpholinyl)-1,3,5-triazin-2-yl]-1H-benzimidazole], the remaining binding at 1 µM on FLT3 (D835Y mutant) came out at 84%; on CLK4 (CLK4), 96%; on PIK3C2G it was 0%; in assay [1], 100%; at CLK2 (CLK2) it was 100%; at G2019S mutant of LRRK2 it was 0.3%. Besides, on CLK1 (CLK1), the remaining binding at 1 µM was 100%. Also, the “off-target binding to PIK3C2G” value on PIK3C2G (1 μM) is “high binding affinity”. Also, at G2019S mutant of LRRK2 (1 μM), the “binding to LRRK2 G2019S” value is given as 99.7%.

`CS(=O)(=O)N1CCN(Cc2cc3nc(-c4cccc5[nH]ncc45)nc(N4CCOCC4)c3s2)CC1` [Pictilisib, 2-(1H-indazol-4-yl)-6-(4-methanesulfonyl-piperazin-1-ylmethyl)-4-morpholin-4-yl-t hieno[3,2-d]pyrimidine]: the remaining binding at 10 µM turned out to be 5.4% on FLT3 (D835Y mutant), 2.1% on PIK3C2G, 26% in assay [1] and 51% at G2019S mutant of LRRK2. In addition, the “off-target activity against PIK3C2G” value on PIK3C2G (10 μM) was “active”. Further, the remaining binding at 1 µM on PIK3C2G was 32%; in assay [1], 100%; at G2019S mutant of LRRK2, 82%.

On to `COc1ncc(-c2ccc3nccc(-c4ccnnc4)c3c2)cc1NS(=O)(=O)c1ccc(F)cc1F` [Omipalisib], for which the remaining binding at 1 µM on FLT3 (D835Y mutant) turned out to be 100%; at CLK4 (CLK4) it was 100%; on PIK3C2G it was 0%; in assay [1], 90%; at CLK2 (CLK2) it was 92%; at G2019S mutant of LRRK2, 87%. In addition, at CLK1 (CLK1), the remaining binding at 1 µM was 96%. Besides, the “off-target binding to PIK3C2G” value on PIK3C2G (1 μM) is listed as “non-selective”.
